From ChEMBL document CHEMBL1201862, “PubChem BioAssay data set” (2004)
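Grown in 96-well plates, cells were treated for 48 hours with each compound at five concentrations. Insufficient inhibition: endpoint recorded as highest concentration tested. The concentration for 50% growth inhibition is given as GI50.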 Active and inactive are the calls of the source. Cut-off read from the data, not from the text of the source: active = GI50 up to about 1.1 µM and inactive = higher.

How the values were obtained:
Test in all cases: inhibition of tumour cell growth, NCI panel, 48 h
RPMI-8226 = system: RPMI-8226
U-251 = system: U-251
NCI-H460 = system: NCI-H460
MDA-MB-435 = system: MDA-MB-435
EKVX = system: EKVX
IGROV-1 = system: IGROV-1
HOP-92 = system: HOP-92
SNB-19 = system: SNB-19
HCT-15 = system: HCT-15
SR = system: SR
KM12 = system: KM12
BT-549 = system: BT-549
786-0 = system: 786-0
SK-MEL-2 = system: SK-MEL-2
MCF7 = system: MCF7
CCRF-CEM = system: CCRF-CEM
SF-268 = system: SF-268
UACC-62 = system: UACC-62
CAKI-1 = system: CAKI-1
OVCAR-3 = system: OVCAR-3
M14 = system: M14
HOP-62 = system: HOP-62
HL-60 = system: HL-60
OVCAR-4 = system: OVCAR-4
MOLT-4 = system: MOLT-4
NCI-H23 = system: NCI-H23
K562 = system: K562
OVCAR-8 = system: OVCAR-8
SN12C = system: SN12C
SNB-75 = system: SNB-75
HCC 2998 = system: HCC 2998
DU-145 = system: DU-145
PC-3 = system: PC-3
RXF 393 = system: RXF 393
OVCAR-5 = system: OVCAR-5
HT-29 = system: HT-29
Malme-3M = system: Malme-3M
UO-31 = system: UO-31
SK-MEL-28 = system: SK-MEL-28
SK-OV-3 = system: SK-OV-3
SF-539 = system: SF-539
HCT-116 = system: HCT-116
ACHN = system: ACHN
TK-10 = system: TK-10
UACC-257 = system: UACC-257
COLO 205 = system: COLO 205
LOX IMVI = system: LOX IMVI
NCI-H226 = system: NCI-H226
A498 = system: A498
MDA-MB-231 = system: MDA-MB-231
SK-MEL-5 = system: SK-MEL-5
NCI/ADR-RES = system: NCI/ADR-RES
SF-295 = system: SF-295
SW-620 = system: SW-620
A549 = system: A549
T47D = system: T47D
MDA-N = system: MDA-N
Hs-578T = system: Hs-578T
NCI-H522 = system: NCI-H522

## CCOC(=O)c1ccc(Nc2cnc3ccc(C(F)(F)F)cc3n2)cc1
RPMI-8226
  GI50: 27.2 µM (inactive)
U-251
  GI50: 16.8 µM (inactive)
NCI-H460
  GI50: 14.2 µM (inactive)
MDA-MB-435
  GI50: 21.5 µM (inactive)
EKVX
  GI50: 24.6 µM (inactive)
IGROV-1
  GI50: 15 µM (inactive)
HOP-92
  GI50: 6.18 µM (inactive)
SNB-19
  GI50: 28.1 µM (inactive)
HCT-15
  GI50: 14.8 µM
SR
  GI50: 10.3 µM (inactive)
KM12
  GI50: 13.1 µM (inactive)
BT-549
  GI50: 15.8 µM (inactive)
786-0
  GI50: 13.9 µM (inactive)
SK-MEL-2
  GI50: 15.1 µM (inactive)
MCF7
  GI50: 19.1 µM (inactive)
CCRF-CEM
  GI50: 12.1 µM (inactive)
SF-268
  GI50: 12.6 µM (inactive)
UACC-62
  GI50: 13.6 µM (inactive)
CAKI-1
  GI50: 16.9 µM (inactive)
OVCAR-3
  GI50: 19.5 µM (inactive)
M14
  GI50: 22.7 µM (inactive)
HOP-62
  GI50: 20.6 µM (inactive)
HL-60
  GI50: 15.9 µM (inactive)
OVCAR-4
  GI50: 11.6 µM (inactive)
MOLT-4
  GI50: 3.63 µM (inactive)
NCI-H23
  GI50: 15 µM (inactive)
K562
  GI50: 19 µM (inactive)
OVCAR-8
  GI50: 12.8 µM (inactive)
SN12C
  GI50: 13.9 µM (inactive)
SNB-75
  GI50: 17.9 µM (inactive)
HCC 2998
  GI50: 12.9 µM (inactive)
DU-145
  GI50: 18.2 µM (inactive)
PC-3
  GI50: 19.2 µM (inactive)
RXF 393
  GI50: 8.18 µM (inactive)
OVCAR-5
  GI50: 24.9 µM (inactive)
HT-29
  GI50: 11.9 µM (inactive)
Malme-3M
  GI50: 21.4 µM (inactive)
UO-31
  GI50: 20.1 µM (inactive)
SK-MEL-28
  GI50: 15.8 µM (inactive)
SK-OV-3
  GI50: 35.9 µM (inactive)
SF-539
  GI50: 28.1 µM (inactive)
HCT-116
  GI50: 14.8 µM (inactive)
ACHN
  GI50: 15.2 µM (inactive)
TK-10
  GI50: 12.3 µM (inactive)
UACC-257
  GI50: 18.4 µM (inactive)
COLO 205
  GI50: 15.3 µM (inactive)
LOX IMVI
  GI50: 15.8 µM (inactive)
NCI-H226
  GI50: 16.4 µM (inactive)
A498
  GI50: 16.6 µM (inactive)
MDA-MB-231
  GI50: 23.4 µM (inactive)
SK-MEL-5
  GI50: 15.5 µM (inactive)
NCI/ADR-RES
  GI50: 12.8 µM (inactive)
SF-295
  GI50: 20.7 µM (inactive)
SW-620
  GI50: 15.2 µM (inactive)
A549
  GI50: 14.5 µM (inactive)
T47D
  GI50: 18.7 µM (inactive)
MDA-N
  GI50: 17.9 µM (inactive)
Hs-578T
  GI50: 17.4 µM (inactive)

## C/C(=C\c1csc(C)n1)[C@@H]1C[C@@H]2O[C@@H]2CCC[C@H](C)[C@H](O)[C@@H](C)C(=O)C(C)(C)[C@@H](O)CC(=O)O1 [EPOTHILONE A]
RPMI-8226
  GI50: < 0.0001 µM (active)
U-251
  GI50: < 0.0001 µM (active)
NCI-H460
  GI50: < 0.0001 µM (active)
MDA-MB-435
  GI50: < 0.0001 µM (active)
EKVX
  GI50: < 0.0001 µM (active)
IGROV-1
  GI50: < 0.0001 µM (active)
HOP-92
  GI50: 0.0039 µM (active)
SNB-19
  GI50: < 0.0001 µM (active)
HCT-15
  GI50: < 0.0001 µM
SR
  GI50: < 0.0001 µM (active)
KM12
  GI50: < 0.0001 µM (active)
BT-549
  GI50: < 0.0001 µM (active)
786-0
  GI50: < 0.0001 µM (active)
SK-MEL-2
  GI50: < 0.0001 µM (active)
MCF7
  GI50: < 0.0001 µM (active)
CCRF-CEM
  GI50: < 0.0001 µM (active)
SF-268
  GI50: < 0.0001 µM (active)
UACC-62
  GI50: < 0.0001 µM (active)
CAKI-1
  GI50: < 0.0001 µM (active)
OVCAR-3
  GI50: < 0.0001 µM (active)
M14
  GI50: < 0.0001 µM (active)
HOP-62
  GI50: < 0.0001 µM (active)
HL-60
  GI50: < 0.0001 µM (active)
OVCAR-4
  GI50: 0.124 µM (active)
MOLT-4
  GI50: < 0.0001 µM (active)
NCI-H23
  GI50: < 0.0001 µM (active)
NCI-H522
  GI50: < 0.0001 µM (active)
K562
  GI50: < 0.0001 µM (active)
OVCAR-8
  GI50: < 0.0001 µM (active)
SN12C
  GI50: < 0.0001 µM (active)
SNB-75
  GI50: < 0.0001 µM (active)
HCC 2998
  GI50: < 0.0001 µM (active)
DU-145
  GI50: < 0.0001 µM (active)
PC-3
  GI50: < 0.0001 µM (active)
RXF 393
  GI50: < 0.0001 µM (active)
OVCAR-5
  GI50: < 0.0001 µM (active)
HT-29
  GI50: < 0.0001 µM (active)
UO-31
  GI50: < 0.0001 µM (active)
SK-OV-3
  GI50: < 0.0001 µM (active)
SF-539
  GI50: < 0.0001 µM (active)
HCT-116
  GI50: < 0.0001 µM (active)
ACHN
  GI50: < 0.0001 µM (active)
TK-10
  GI50: 0.0167 µM (active)
UACC-257
  GI50: < 0.0001 µM (active)
COLO 205
  GI50: < 0.0001 µM (active)
LOX IMVI
  GI50: < 0.0001 µM (active)
NCI-H226
  GI50: < 0.0001 µM (active)
A498
  GI50: < 0.0001 µM (active)
MDA-MB-231
  GI50: < 0.0001 µM (active)
SK-MEL-5
  GI50: < 0.0001 µM (active)
NCI/ADR-RES
  GI50: 0.000113 µM (active)
SF-295
  GI50: < 0.0001 µM (active)
SW-620
  GI50: < 0.0001 µM (active)
A549
  GI50: < 0.0001 µM (active)
T47D
  GI50: < 0.0001 µM (active)
MDA-N
  GI50: < 0.0001 µM (active)
Hs-578T
  GI50: < 0.0001 µM (active)
